This is an account of results in PubChem BioAssay AID2060905 (Molecular Pharmacology Branch, DTP, NCI, 2025).

The subject of the experiment is 282377-053-R-J1-PDC complex spheroid viability. Briefly: Anticancer human tumor 282377-053-R-J1-PDC patient-derived colon adenocarcinoma cell line growth inhibition [RAS]. The conditions noted are these: for viability, T/C: stronger effect = lower value. From the text: RAS pathway inhibitors in Combinations in Complex Spheroids
A high-throughput screen of multi-cell type tumor spheroids was designed to identify active combinations of RAS pathway inhibitors and targeted small molecules. Complex spheroids include a stromal component modeled by human endothelial cells (HUVEC) and fibroblasts modeled by human mesenchymal stem cells (MSCs). The concentration ranges selected for each drug and investigational agent were based upon clinically achievable concentrations if the clinical Cmax of the agent was known.
Compounds. The drugs and investigational agents: abemaciclib (NSC768073), cobimetinib (NSC768068), divarasib (GDC6063, NSC841802), docetaxel (NSC628503), GDC-1971 (RLY-1971, NSC841576), gemcitabine (NSC613327), inavolisib (NSC800729), ipatasertib (NSC767898), KB-0742 (NSC834161), MRTX-1133 (NSC836407), osimertinib (NSC779217), RMC-4630 (NSC839698), RMC-6236 (NSC851965), RMC-6291 (NSC852671), Ro-3306 (NSC812927), sapanisertib (NSC764658), SN-38 (NSC673596), staurosporine (NSC755774), SY5609 (NSC837396), and tovorafenib (DAY101, NSC766906), were obtained from the National Cancer Institute (NCI) Developmental Therapeutics Program Chemical Repository. The FDA-approved anticancer drug set is available from the NCI Developmental Therapeutics Program. […] The stock solutions were prepared in dimethyl sulfoxide (DMSO, Sigma-Aldrich, St. Louis, MO, cat. D2650) at 800-fold the tested concentration and stored at -70 degrees C prior to their use. All drugs and investigational agents were tested over a range starting from a high concentration at or near the clinical Cmax and decreasing in half-log increments. If the clinical Cmax for an agent had not been determined, the highest concentration tested was 10 microM.
Cell Culture. All cells were maintained in an incubator at 37 degrees C and 5% CO2 with 95% humidity. The PDC lines were cultured according to standard operating procedures established by the NCI PDMR. All PDCs were thawed and cultured in Matrigel-coated flasks prepared with a working solution of 1X Ham's F-12 nutrient mix, without supplementation (Invitrogen, Waltham, MA, cat. 11765054), 100 U/mL penicillin-streptomycin (Invitrogen, cat. 15140122), and 2.5% Matrigel (Corning Inc., Corning, NY, cat. 354248) for the first three passages. The 362531-283-R-J2-PDC and 782815-120-R-J1-PDC lines were cultured in 6C/Colon 1B media, which includes advanced DMEM/F-12 (Thermo Fisher Scientific, cat. 12634028), 10 mM HEPES (Thermo Fisher Scientific, cat. 15630080), 1X GlutaMAX supplement (Thermo Fisher Scientific, cat. 35050061), 0.1 mg/mL primocin (InvivoGen, San Diego, CA, cat. ant-pm-2), 10% defined fetal bovine serum, heat inactivated (HyClone Laboratories Inc., Logan, UT, cat. SH30070.03HI), 50% L-WRN conditioned media (ATCC, cat. CRL-3276), 1.25 mM N-Acetyl-L-cysteine (Sigma-Aldrich, cat. A9165), 10 mM nicotinamide (Sigma-Aldrich, cat. N0636), 1X B-27 supplement (Thermo Fisher Scientific, cat. 17504044), 1X N-2 supplement (Thermo Fisher Scientific, cat. 17502048), 50 ng/mL human EGF (Thermo Fisher Scientific, cat. PHG0311), and 10 microM Y-27632 dihydrochloride (Tocris Bioscience, cat. 1254). The K12877-001-R-J1-PDC line was cultured in 6I media, which includes all 6C/Colon 1B media plus 10 ng/mL human FGF-10 (PeproTech, cat. 100-26), 1 ng/mL human FGF-2 (PeproTech, cat. 100-18B), 1 µM prostaglandin E2 (Tocris Bioscience, cat. 2296), […] hydrocortisone (Sigma-Aldrich, cat. H4001), and […] bovine insulin (Sigma-Aldrich, cat. I6634). The K86415-001-R-J1-PDC line was cultured in 6D media, which includes all 6C/Colon 1B media components minus the L-WRN conditioned media. The 485176-168-R4-J1-PDC was cultured in PANC media, which includes all 6C/Colon 1B media plus 100 ng/mL human FGF-10 (PeproTech, cat. 100-26), 500 nM SB-431542 (Selleckchem, cat. S1067), and 10 nM gastrin (Tocris Bioscience, cat. 3006). […]

Values joined by “and” are separate entries in the source; they are usually repeats but may differ in a detail not shown here. Equal entries are not always repeated. Bounds are passed on as bounds.
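Note: spheroids exposed to agents for seven days before readout.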
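Throughout, for viability, T/C: luminescence viability as percent of DMSO vehicle control wells.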

In the case of `CC(=O)OC12COC1CC(O)C1(C)C(=O)C(O)C3=C(C)C(OC(=O)C(O)C(NC(=O)OC(C)(C)C)c4ccccc4)CC(O)(C(OC(=O)c4ccccc4)C21)C3(C)C` (centres undefined), the viability, T/C was 33.6% [middle of 4 runs] (compound 0.1 µM) and 37.9% [middle of 4 runs] (compound 0.316 µM). Moreover, the concentration for half-maximal inhibition (IC50) (curve of compound) is under 31.6 nM.
Regarding `CCN1CCN(Cc2ccc(Nc3ncc(F)c(-c4cc(F)c5nc(C)n(C(C)C)c5c4)n3)nc2)CC1` + CCn1c(-c2cccnc2C(C)OC)c2c3cc(ccc31)N1CCOC(CC(NC(=O)C(C(C)C)N(C)C(=O)C3(F)CCN(C(=O)C#CC(C)(C)N(C)C)CC3)C(=O)N3CCCC(N3)C(=O)OCC(C)(C)C2)C1, the IC50 is, setting by setting: (curve of first compound, second compound 0.000949 µM) over 1000 nM; (curve of first compound, second compound 0.003 µM) over 1000 nM; (curve of first compound, second compound 0.00949 µM) over 1000 nM; (curve of first compound, second compound 0.03 µM) over 1000 nM; (curve of first compound, second compound 0.0949 µM) over 1000 nM; (curve of first compound, second compound 0.3 µM) over 1000 nM. Moreover, the viability, T/C reads like this: (second compound 0.000949 µM, first compound 0.00316 µM) 117%; (second compound 0.000949 µM, first compound 0.01 µM) 100%; (second compound 0.000949 µM, first compound 0.0316 µM) 104%; (second compound 0.000949 µM, first compound 0.1 µM) 97.3%; (second compound 0.000949 µM, first compound 0.316 µM) 137%; (second compound 0.000949 µM, first compound 1 µM) 229%. In addition, the viability, T/C is 137% (second compound 0.003 µM, first compound 0.00316 µM); 113% (second compound 0.003 µM, first compound 0.01 µM); 94.6% (second compound 0.003 µM, first compound 0.0316 µM); 99% (second compound 0.003 µM, first compound 0.1 µM); 144% (second compound 0.003 µM, first compound 0.316 µM); 204% (second compound 0.003 µM, first compound 1 µM). In addition, the viability, T/C (second compound 0.00949 µM, first compound 0.00316 µM) was 111%; the viability, T/C (second compound 0.00949 µM, first compound 0.01 µM) was 106%; the viability, T/C (second compound 0.00949 µM, first compound 0.0316 µM) was 122%; the viability, T/C (second compound 0.00949 µM, first compound 0.1 µM) was 90.4%; the viability, T/C (second compound 0.00949 µM, first compound 0.316 µM) is 156%; the viability, T/C (second compound 0.00949 µM, first compound 1 µM) is 208%. Besides, the viability, T/C was 104% (second compound 0.03 µM, first compound 0.00316 µM); 99.5% (second compound 0.03 µM, first compound 0.01 µM); 113% (second compound 0.03 µM, first compound 0.0316 µM); 110% (second compound 0.03 µM, first compound 0.1 µM); 134% (second compound 0.03 µM, first compound 0.316 µM); 238% (second compound 0.03 µM, first compound 1 µM). Further, the viability, T/C was 102% (second compound 0.0949 µM, first compound 0.00316 µM); 109% (second compound 0.0949 µM, first compound 0.01 µM); 120% (second compound 0.0949 µM, first compound 0.0316 µM); 116% (second compound 0.0949 µM, first compound 0.1 µM); 125% (second compound 0.0949 µM, first compound 0.316 µM); 250% (second compound 0.0949 µM, first compound 1 µM). Besides, the viability, T/C (second compound 0.3 µM, first compound 0.00316 µM) was 93%; the viability, T/C (second compound 0.3 µM, first compound 0.01 µM) is 106%; the viability, T/C (second compound 0.3 µM, first compound 0.0316 µM) is 87.2%; the viability, T/C (second compound 0.3 µM, first compound 0.1 µM) is 124%; the viability, T/C (second compound 0.3 µM, first compound 0.316 µM) is 160%; the viability, T/C (second compound 0.3 µM, first compound 1 µM) is 221%.
As to `CC1(O)CCCC1n1c(=O)c(C(F)F)cc2cnc(NC3CCN(S(C)(=O)=O)CC3)nc21` (centres undefined), the viability, T/C is, setting by setting: (compound 0.1 µM) 128% [middle of 4 runs]; (compound 1 µM) 112% (2×) and 190% and 160%; (compound 10 µM) 5.45% [middle of 4 runs]. For the setting “curve of compound”, the IC50 was 6.64 µM [middle of 4 runs].
